Results as given in patent US20240246977A1, “DEGRADATION OF BRUTON'S TYROSINE KINASE (BTK) BY CONJUGATION OF BTK INHIBITORS WITH E3 LIGASE LIGAND AND METHOD OF USE” (BeiGene Switzerland GmbH, priority 2021, published 2024).

Legend:
HEK-293 cells = assay: HEK-293 cytotoxicity detection (CellTiter-Glo); type: cell-based; conditions: Homo sapiens, 72 h, 72 h incubation, CellTiter-Glo luminescence, read-out: HEK293
Method in brief: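 HEK-293 cells exposed 72 h to 8 compounds doses (4-fold dilutions, top stock 5 mM at 500×) in 0.2% DMSO. Viability by CellTiter-Glo luminescence; inhibition normalised to DMSO high control and low control, IC50 from four-parameter curve fit.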

BTK = BTK (Homo sapiens, UniProt Q06187); assay: BTK cell degradation in TMD-8 cells, HTRF assay; type: cell-based; parameters: endogenous in cells; host or cells: TMD-8 cells; conditions: 6 h treatment, IC50 (DC50) of BTK degradation
Method in brief: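 TMD-8 cells treated 6 h with 8-dose series (6-fold dilutions, 0.2% DMSO final), then lysed and BTK quantified by HTRF (337/665/620 nm) after overnight antibody incubation at room temperature. Degradation normalized to DMSO high and low controls; DC50 and Dmax from four-parameter fit.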

Chain of BTK (Q06187 whole entry): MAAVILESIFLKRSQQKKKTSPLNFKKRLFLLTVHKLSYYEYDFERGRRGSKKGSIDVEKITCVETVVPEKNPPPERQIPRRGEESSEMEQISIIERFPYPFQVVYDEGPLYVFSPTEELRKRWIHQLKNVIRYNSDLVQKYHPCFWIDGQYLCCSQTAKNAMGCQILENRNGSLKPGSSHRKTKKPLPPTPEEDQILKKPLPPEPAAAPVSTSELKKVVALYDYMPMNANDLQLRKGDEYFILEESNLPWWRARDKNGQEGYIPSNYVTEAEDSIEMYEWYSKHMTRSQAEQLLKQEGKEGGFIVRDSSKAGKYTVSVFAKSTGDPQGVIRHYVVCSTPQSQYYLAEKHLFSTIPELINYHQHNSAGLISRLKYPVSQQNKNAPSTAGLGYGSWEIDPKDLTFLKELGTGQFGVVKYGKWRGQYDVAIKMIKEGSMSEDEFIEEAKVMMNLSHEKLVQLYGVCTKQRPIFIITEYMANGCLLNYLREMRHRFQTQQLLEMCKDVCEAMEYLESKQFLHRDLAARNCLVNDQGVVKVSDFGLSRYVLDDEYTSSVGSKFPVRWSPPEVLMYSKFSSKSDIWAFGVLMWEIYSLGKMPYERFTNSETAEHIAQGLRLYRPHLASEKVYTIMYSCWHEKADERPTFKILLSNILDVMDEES

Cc1cncc(NC(=O)c2ccc(-c3nn4c(c3C(N)=O)Nc3ccc(N5CCN(CC6CCN(c7ccc(N8CCC(=O)NC8=O)cc7)CC6)CC5)cc3CC4)c(F)c2C)n1 [Example B40, 7-(4-((1-(4-(2,4-dioxotetrahydropyrimidin-1(2H)-yl)phenyl)piperidin-4-yl)methyl)piperazin-1-yl)-2-(2-fluoro-3-methyl-4-((6-methylpyrazin-2-yl)carbamoyl)phenyl)-9,10-dihydro-4H-benzo[d]pyrazolo[1,5-a][1,3]diazepine-3-carboxamide]
IC50 (HEK-293 cells): > 10000 nM | DC50 (BTK): 5.69 nM

NC(=O)c1c(-c2ccc(Oc3ccccc3)cc2)nn2c1Nc1ccc(N3CCN(CC4CCN(c5ccc(N6CCC(=O)NC6=O)cc5)CC4)CC3)cc1CC2 [Example A21, 7-(4-((1-(4-(2,4-dioxotetrahydropyrimidin-1(2H)-yl)phenyl)piperidin-4-yl)methyl)piperazin-1-yl)-2-(4-phenoxyphenyl)-9,10-dihydro-4H-benzo[d]pyrazolo[1,5-a][1,3]diazepine-3-carboxamide]
IC50 (HEK-293 cells): 62.1 nM | DC50 (BTK): 1.51 nM

NC(=O)c1c(-c2ccc(C(=O)Nc3ccccn3)cc2)nn2c1Nc1ccc(N3CCN(CC4CCN(c5ccc(N6CCC(=O)NC6=O)cc5)CC4)CC3)cc1CC2 [Example B4, 7-(4-((1-(4-(2,4-dioxotetrahydropyrimidin-1(2H)-yl)phenyl)piperidin-4-yl)methyl)piperazin-1-yl)-2-(4-(pyridin-2-ylcarbamoyl)phenyl)-9,10-dihydro-4H-benzo[d]pyrazolo[1,5-a][1,3]diazepine-3-carboxamide]
IC50 (HEK-293 cells): > 10000 nM | DC50 (BTK): 0.704 nM

Cc1cccc(NC(=O)c2ccc(-c3nn4c(c3C(N)=O)Nc3ccc(N5CCN(CC6CCN(c7cc8c(cc7F)CN(C7CCC(=O)NC7=O)C8=O)CC6)CC5)cc3CC4)c(F)c2C)n1 (centres unmarked) [Example B56, 7-(4-((1-(2-(2,6-dioxopiperidin-3-yl)-6-fluoro-3-oxoisoindolin-5-yl)piperidin-4-yl)methyl)piperazin-1-yl)-2-(2-fluoro-3-methyl-4-((6-methylpyridin-2-yl)carbamoyl)phenyl)-9,10-dihydro-4H-benzo[d]pyrazolo[1,5-a][1,3]diazepine-3-carboxamide]
IC50 (HEK-293 cells): > 10000 nM | DC50 (BTK): 4.31 nM

COc1ccccc1C(=O)NCc1ccc(-c2nn3c(c2C(N)=O)Nc2ccc(N4CCN(CC5CCN(c6ccc(N7CCC(=O)NC7=O)cc6)CC5)CC4)cc2CC3)c(F)c1C [Example C46, 7-(4-((1-(4-(2,4-dioxotetrahydropyrimidin-1(2H)-yl)phenyl)piperidin-4-yl)methyl)piperazin-1-yl)-2-(2-fluoro-4-((2-methoxybenzamido)methyl)-3-methylphenyl)-9,10-dihydro-4H-benzo[d]pyrazolo[1,5-a][1,3]diazepine-3-carboxamide]
IC50 (HEK-293 cells): > 10000 nM | DC50 (BTK): 4.38 nM

NC(=O)c1c(-c2ccc(Oc3ccccc3)cc2)nn2c1Nc1ccc(C(=O)NC3CCN(c4ccc5c(c4)C(=O)N(C4CCC(=O)NC4=O)C5=O)CC3)cc1CC2 (centres unmarked) [Example A9, N7-(1-(2-(2,6-dioxopiperidin-3-yl)-1,3-dioxoisoindolin-5-yl)piperidin-4-yl)-2-(4-phenoxyphenyl)-9,10-dihydro-4H-benzo[d]pyrazolo[1,5-a][1,3]diazepine-3,7-dicarboxamide]
IC50 (HEK-293 cells): 65.6 nM | DC50 (BTK): 2.26 nM

NC(=O)c1c(-c2ccc(OCc3ccccc3)cc2)nn2c1Nc1ccc(N3CCN(CC4CCN(c5ccc(N6CCC(=O)NC6=O)cc5)CC4)CC3)cc1CC2 [Example A38, 2-(4-(benzyloxy)phenyl)-7-(4-((1-(4-(2,4-dioxotetrahydropyrimidin-1(2H)-yl)phenyl)piperidin-4-yl)methyl)piperazin-1-yl)-9,10-dihydro-4H-benzo[d]pyrazolo[1,5-a][1,3]diazepine-3-carboxamide]
IC50 (HEK-293 cells): 185 nM | DC50 (BTK): 1.12 nM

NC(=O)c1c(-c2ccc(Oc3ccccc3)cc2)nn2c1Nc1ccc(NC(=O)C3CCN(CC4CCN(c5ccc6c(c5)C(=O)N(C5CCC(=O)NC5=O)C6=O)CC4)CC3)cc1CC2 (centres unmarked) [Example A4, 7-(1-((1-(2-(2,6-dioxopiperidin-3-yl)-1,3-dioxoisoindolin-5-yl)piperidin-4-yl)methyl)piperidine-4-carboxamido)-2-(4-phenoxyphenyl)-9,10-dihydro-4H-benzo[d]pyrazolo[1,5-a][1,3]diazepine-3-carboxamide]
IC50 (HEK-293 cells): 78.1 nM | DC50 (BTK): 1.26 nM

Cc1cccc(NC(=O)c2ccc(-c3nn4c(c3C(N)=O)Nc3ccc(N5CCN(C[C@H]6CCN(c7ccc(N8CCC(=O)NC8=O)cc7)C6)CC5)cc3CC4)c(F)c2C)n1 [Example B74, (R)-7-(4-((1-(4-(2,4-dioxotetrahydropyrimidin-1(2H)-yl)phenyl)pyrrolidin-3-yl)methyl)piperazin-1-yl)-2-(2-fluoro-3-methyl-4-((6-methylpyridin-2-yl)carbamoyl)phenyl)-9,10-dihydro-4H-benzo[d]pyrazolo[1,5-a][1,3]diazepine-3-carboxamide]
IC50 (HEK-293 cells): > 10000 nM | DC50 (BTK): 7.15 nM

Cc1c(C(=O)Nc2cscn2)ccc(-c2nn3c(c2C(N)=O)Nc2ccc(N4CCN(CCc5cccc6c5oc(=O)n6C5CCC(=O)NC5=O)CC4)cc2CC3)c1F (centres unmarked) [Example B96, 7-(4-(2-(3-(2,6-dioxopiperidin-3-yl)-2-oxo-2,3-dihydrobenzo[d]oxazol-7-yl)ethyl)piperazin-1-yl)-2-(2-fluoro-3-methyl-4-(thiazol-4-ylcarbamoyl)phenyl)-9,10-dihydro-4H-benzo[d]pyrazolo[1,5-a][1,3]diazepine-3-carboxamide]
IC50 (HEK-293 cells): 116 nM | DC50 (BTK): 0.586 nM

Cc1cccc(NC(=O)c2cnc(-c3nn4c(c3C(N)=O)Nc3ccc(N5CCN(CC6CCN(c7ccc(N8CCC(=O)NC8=O)cc7)CC6)CC5)cc3CC4)cc2C)n1 [Example B36, 7-(4-((1-(4-(2,4-dioxotetrahydropyrimidin-1(2H)-yl)phenyl)piperidin-4-yl)methyl)piperazin-1-yl)-2-(4-methyl-5-((6-methylpyridin-2-yl)carbamoyl)pyridin-2-yl)-9,10-dihydro-4H-benzo[d]pyrazolo[1,5-a][1,3]diazepine-3-carboxamide]
IC50 (HEK-293 cells): > 10000 nM | DC50 (BTK): 47.2 nM

COc1cccc(OC)c1C(=O)NCc1ccc(-c2nn3c(c2C(N)=O)Nc2ccc(N4CCN(CC5CCN(c6ccc(N7CCC(=O)NC7=O)cc6)CC5)CC4)cc2CC3)cc1 [Example C22, 2-(4-((2,6-dimethoxybenzamido)methyl)phenyl)-7-(4-((1-(4-(2,4-dioxotetrahydropyrimidin-1(2H)-yl)phenyl)piperidin-4-yl)methyl)piperazin-1-yl)-9,10-dihydro-4H-benzo[d]pyrazolo[1,5-a][1,3]diazepine-3-carboxamide]
IC50 (HEK-293 cells): > 10000 nM | DC50 (BTK): 2.12 nM

COc1ncccc1C(=O)NCc1ccc(-c2nn3c(c2C(N)=O)Nc2ccc(N4CCN(CC5CCN(c6ccc(N7CCC(=O)NC7=O)cc6)CC5)CC4)cc2CC3)cc1C [Example C34, 7-(4-((1-(4-(2,4-dioxotetrahydropyrimidin-1(2H)-yl)phenyl)piperidin-4-yl)methyl)piperazin-1-yl)-2-(4-((2-methoxynicotinamido)methyl)-3-methylphenyl)-9,10-dihydro-4H-benzo[d]pyrazolo[1,5-a][1,3]diazepine-3-carboxamide]
IC50 (HEK-293 cells): > 10000 nM | DC50 (BTK): 3.91 nM
